From PubChem BioAssay (NCI)
“And” between values parts separate entries of the source, which are not always exact repeats. Identical values can stand only once.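 Exposure lasted 48 hours, with cells grown in 96-well plates and compounds tested at five concentrations. Abbreviation: GI50, concentration required for 50% inhibition of growth. TGI denotes the concentration required for complete inhibition of growth.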 Where a SMILES comes first, the peptide text is derived from it. Side-chain parts run from the residue outwards. The star is where a group is joined. Cbz = O=C(OCc1ccccc1)*; Boc = CC(C)(C)OC(=O)*

What was measured:
Assay in all cases: NCI tumour cell line growth inhibition, 48 h
A498 renal = tested on: A498 renal
HCT-116 colon = tested on: HCT-116 colon
HCT-15 colon = tested on: HCT-15 colon
HT29 colon = tested on: HT29 colon
MCF7 breast = tested on: MCF7 breast
NCI-H226 lung = tested on: NCI-H226 lung
NCI-H23 lung = tested on: NCI-H23 lung
T-47D breast = tested on: T-47D breast
TK-10 renal = tested on: TK-10 renal
UACC-257 melanoma = tested on: UACC-257 melanoma
SK-OV-3 ovarian = tested on: SK-OV-3 ovarian

| Compound | TGI (A498 renal) | TGI (HCT-116 colon) | TGI (HCT-15 colon) | TGI (HT29 colon) | TGI (MCF7 breast) | TGI (NCI-H226 lung) | TGI (NCI-H23 lung) | TGI (T-47D breast) | TGI (TK-10 renal) | TGI (UACC-257 melanoma) | TGI (SK-OV-3 ovarian) | GI50 (A498 renal) | GI50 (HCT-15 colon) | GI50 (TK-10 renal) | GI50 (UACC-257 melanoma) |
| --- | --- | --- | --- | --- | --- | --- | --- | --- | --- | --- | --- | --- | --- | --- | --- |
| O=C1O[C@H]2C3C4CCC(C4[C@@H]2I)[C@H]13 (stereo partly drawn) | > 100 µM | > 100 µM | > 100 µM | > 100 µM | > 100 µM | > 100 µM | > 100 µM | > 100 µM | > 100 µM | > 100 µM |  |  |  |  |  |
| C[C@]12CC[C@H](O)CC1=CC[C@@H]1[C@@H]2CC[C@]2(C)C(=O)/C(=C/c3ccc([N+](=O)[O-])cc3)C[C@@H]12 | 30.4 µM | 62.3 µM | > 100 µM | > 100 µM | > 100 µM | 10.2 µM | 57 µM | 61.6 µM |  | 56 µM | 22.6 µM |  |  |  |  |
| N#Cc1c(N2CCCC2)nsc1Nc1ccc(F)cc1 | > 100 µM | > 100 µM | > 100 µM | > 100 µM |  | > 100 µM | > 100 µM | > 100 µM | > 100 µM | > 100 µM | > 100 µM |  |  |  |  |
| CC(C)(C)OC(=O)NC(CCCCNC(=O)CNC(=O)OCc1ccccc1)C(=O)NC(CCCCNC(=O)CNC(=O)OCc1ccccc1)C(=O)NC(CCCCNC(=O)CNC(=O)OCc1ccccc1)C(=O)NC(CCCCNC(=O)CNC(=O)OCc1ccccc1)C(=O)O (stereo not drawn) (Boc-K([Gly-Cbz])K([Gly-Cbz])K([Gly-Cbz])K([Gly-Cbz])-OH; configuration not given here) |  | > 100 µM | > 100 µM | > 100 µM | > 100 µM | > 100 µM | > 100 µM | > 100 µM | > 100 µM | > 100 µM |  |  |  |  |  |
| NC1=Nc2ccccc2Sc2nc3ccccc3n21 |  | 32.8 µM | > 100 µM | 31.3 µM | > 100 µM | > 100 µM | > 100 µM | > 100 µM | > 100 µM | > 100 µM | 77.9 µM |  |  |  |  |
| Cc1cn([C@@H]2C[C@H](CO)[C@@H]2O)c(=O)[nH]c1=O | > 100 µM | > 100 µM | > 100 µM | > 100 µM | > 100 µM | > 100 µM | > 100 µM |  | > 100 µM | > 100 µM |  |  |  |  |  |
| OCC1OC(c2ccccc2)CC1O (stereo not drawn) | > 100 µM | > 100 µM | > 100 µM | > 100 µM | > 100 µM | > 100 µM |  |  | > 100 µM | > 100 µM | > 100 µM |  |  |  |  |
| CC(C)C1=C(Cc2ccccc2)C(=O)O/C1=C\c1ccc(O)c(Cl)c1 | 31.4 µM | 28.8 µM | 29.6 µM | 32.8 µM | 30.3 µM | 30.6 µM | 25.8 µM |  | 31.8 µM | 32.8 µM | 33.7 µM |  |  |  |  |
| COc1cc(C2c3cc(OC)c(OC)c(O)c3C(=O)C3CCC(=O)N32)cc(OC)c1OC (stereo not drawn) | > 100 µM | > 100 µM | > 100 µM | > 100 µM | > 100 µM | > 100 µM |  | > 100 µM | > 100 µM | > 100 µM | > 100 µM |  |  |  |  |
| CC1C(C#N)(C#N)C(C#N)=C(N)C1(C)[N+](=O)[O-] (stereo not drawn) | > 100 µM | > 100 µM | > 100 µM | > 100 µM | > 100 µM | > 100 µM | > 100 µM |  | > 100 µM | > 100 µM | > 100 µM |  |  |  |  |
| CC(=O)OCC1OC(n2c(N)c(C#N)c(-c3cccc(Cl)c3)c(C#N)c2=S)C(OC(C)=O)C(OC(C)=O)C1OC(C)=O (stereo not drawn) | 45.5 µM | 94 µM | > 100 µM | 84.5 µM | > 100 µM |  | 92.7 µM | 59 µM | 54.2 µM | 65 µM | 57.1 µM |  |  |  |  |
| CC1=CC(=O)/C(=C/n2c(=S)[nH]c3cc(C)ccc32)C(=O)O1 |  | > 100 µM | > 100 µM | > 100 µM | > 100 µM | > 100 µM | > 100 µM |  | > 100 µM | > 100 µM | > 100 µM |  |  |  |  |
| O=C(c1ccccc1)c1c(C(F)(F)F)n([O-])c2cc(F)c(F)cc2[n+]1=O | 7.19 µM |  |  | > 100 µM | 1.71 µM | 5.69 µM | 0.789 µM | > 36.7 µM | 0.816 µM | 3.76 µM | > 49.5 µM |  |  |  |  |
| Cc1c2oc3c(C)cc(F)c(C(=O)NC4C(=O)NC(C(C)C)C(=O)N5CCCC5C(=O)N(C)CC(=O)N(C)C(C(C)C)C(=O)OC4C)c3nc-2c(C(=O)NC2C(=O)NC(C(C)C)C(=O)N3CCCC3C(=O)N(C)CC(=O)N(C)C(C(C)C)C(=O)OC2C)c(N)c1=O (stereo not drawn) | 0.902 µM |  | > 100 µM |  | 60.6 µM | 0.625 µM and 0.346 µM | 0.897 µM and 6.26 µM |  |  |  | > 100 µM | 850 nM | 420 nM | 1070 nM | 73.2 nM |
| O=c1[nH]c(=O)n(COCc2ccccc2)c2ccccc12 | > 100 µM | > 100 µM | > 100 µM | > 100 µM | > 100 µM | > 100 µM |  |  | > 100 µM | > 100 µM | > 100 µM |  |  |  |  |
| COc1cc2[nH]c(=O)c3cc(C)cc4c(Cl)nc(c1OC)c2c43 |  | > 100 µM | > 100 µM | > 100 µM | > 100 µM | > 100 µM | > 100 µM |  | > 100 µM | > 100 µM | > 100 µM |  |  |  |  |
| CCC(=O)N1C(=O)C(CC)(CC)C(=O)N1C(=O)CC |  | > 100 µM | > 100 µM | > 100 µM | > 100 µM | > 100 µM | > 100 µM | > 100 µM | > 100 µM | > 100 µM | > 100 µM |  |  |  |  |
| COC1=CC(=O)c2nc3ccccc3c3ccnc1c23 |  | > 22.8 µM | 13.5 µM | 12.5 µM | 15.2 µM | 33 µM | 16 µM | > 100 µM | > 66.9 µM | 17 µM | > 100 µM |  |  |  |  |
| OC1(c2ccc(Cl)cc2)c2c(c3ccccc3c3ccccc23)C2=NCCN21 (stereo not drawn) | 43.7 µM | 25.7 µM | > 100 µM | 35.5 µM | 41.7 µM |  | 24.5 µM | > 100 µM | 16.8 µM | 49.7 µM | 31.3 µM |  |  |  |  |
| C=CCOCn1ccc(N)nc1=O |  | > 100 µM | > 100 µM | > 100 µM | > 100 µM | > 100 µM | > 100 µM | > 100 µM | > 100 µM | > 100 µM | > 100 µM |  |  |  |  |
